Where a SMILES comes first, the peptide text is derived from it. The star is where a group is joined. 5FAM = O=C1OC2(c3ccc(O)cc3Oc3cc(O)ccc32)c2ccc(C(=O)*)cc21
Assay: In vitro metabolism test of fluorescein-labeled peptides in liver extract solution (HPLC)
Format: in vitro ADME
Details: mouse liver extract solution, 37° C.
Procedure: To compare the degree of improved stability observed in [C]K004K, an experiment system that uses a fluorescent pigment as a tracer instead of an isotope labeling for in vitro evaluation using a mouse liver homogenate was produced.
Add two parts of Hanks' solution to one part of mouse liver, and homogenize ↓ Centrifuge and collect supernatant ↓ Add five parts of Hanks' solution (liver extract solution) ↓ Add 5 μL of peptide to 245 μL of liver extract solution ↓
↓ Take 50 μL of sample 0, 5, 30, 60, and 120 minutes after incubation ↓ Add 200 μL, of 70% ethanol (pre-cooled at −30° C.) and then vortex ↓ Add 500 μL of chloroform (pre-cooled at −30° C.) and then vigorously vortex ↓ Centrifuge and collect supernatant ↓ Add an equivalent amount of DMF and then vortex ↓ Centrifuge and collect supernatant ↓ HPLC analysis using Co-sense
[C](Flu)-C004C: A peptide cyclized by adding C to both ends of the 004 sequence and forming a disulfide bond between them was labeled with fluorescein at its N-terminus. [C](Flu)-K004C: A peptide cyclized by adding K to the N terminus and C to the C terminus of the 004 sequence and forming a peptide bond between the N- and C-termini was labeled with fluorescein at its N terminus. [C](Flu)-K004K: A peptide cyclized by adding K to both ends of the 004 sequence and forming a peptide bond between the N- and C-termini was labeled with fluorescein at its N terminus. […]

Question: With `CC(C)C[C@@H]1NC(=O)[C@H](Cc2c[nH]cn2)NC(=O)[C@H](CCCNC(=N)N)NC(=O)[C@H](C(C)C)NC(=O)[C@H](C(C)C)NC(=O)[C@H](CCCCNC(=O)c2ccc3c(c2)C(=O)OC32c3ccc(O)cc3Oc3cc(O)ccc32)NC(=O)[C@H](CCCCN)NC(=O)[C@H](CCC(N)=O)NC(=O)[C@H](CCC(N)=O)NC1=O` [[C](Flu)-K004K] (cyclo(K(5FAM)VVRHLQQK)) as the compound, how does the “resistance to degradation in liver extract solution (comparison)” value read?
Answer: The value was “strongest resistance to degradation”.
